Reference: patent publication US11053204B2, “Pyrimidinyloxy benzene derivatives as herbicides” (FMC Corporation, priority 2015, dated 2021)

Experiments:
Assay type in all cases: in vivo
[1] = tested on: wheat (Triticum aestivum); test: Test A postemergence, visual injury rating; conditions: 0 to 100 scale, 0 is no effect, 100 is complete control, approximately 10 days
Procedure, shortened: (§1)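 Pre- and postemergence greenhouse screen. Soil: loam + sand. Spray carrier: solvent mixture, non-phytotoxic, with surfactant. Post timing at 1–2 leaves, height 2–10 cm. Readout: visual injury on a 0–100 scale roughly 10 days after application, untreated plants as reference.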

[2] = tested on: ragweed (common ragweed, Ambrosia elatior); test: Test A postemergence, visual injury rating; conditions: 0 to 100 scale, 0 is no effect, 100 is complete control, approximately 10 days
Procedure, shortened: as §1

[3] = tested on: Italian ryegrass (Lolium multiflorum); test: Test A postemergence, visual injury rating; conditions: 0 to 100 scale, 0 is no effect, 100 is complete control, approximately 10 days
Procedure, shortened: as §1

kochia (Kochia scoparia) [4] = test: Test A postemergence, visual injury rating; conditions: 0 to 100 scale, 0 is no effect, 100 is complete control, approximately 10 days
Procedure, shortened: as §1

[5] = tested on: blackgrass (Alopecurus myosuroides); test: Test A postemergence, visual injury rating; conditions: 0 is no effect, 100 is complete control; for Blackgrass plant response rating: 31 g ai/ha, 0 to 100 scale, approximately 10 days; for Blackgrass plant response rating (0 to 100 scale): 125 g ai/ha
Procedure, shortened: as §1

[6] = tested on: barnyardgrass (Echinochloa crus-galli); test: Test A postemergence, visual injury rating; conditions: 0 is no effect, 100 is complete control; for Barnyardgrass plant response rating: 31 g ai/ha, 0 to 100 scale, approximately 10 days; for Barnyardgrass plant response rating (0 to 100 scale): 125 g ai/ha
Procedure, shortened: as §1

corn (Zea mays) = test: Test A postemergence, visual injury rating; conditions: 0 is no effect, 100 is complete control; for Corn plant response rating: 31 g ai/ha, 0 to 100 scale, approximately 10 days; for Corn plant response rating (0 to 100 scale): 125 g ai/ha
Procedure, shortened: as §1

[7] = tested on: galium (catchweed bedstraw, Galium aparine); test: Test A postemergence, visual injury rating; conditions: 0 is no effect, 100 is complete control; for Galium plant response rating: 31 g ai/ha, 0 to 100 scale, approximately 10 days; for Galium plant response rating (0 to 100 scale): 125 g ai/ha
Procedure, shortened: as §1

[8] = tested on: pigweed (Amaranthus retroflexus); test: Test A postemergence, visual injury rating; conditions: 0 to 100 scale, 0 is no effect, 100 is complete control, approximately 10 days
Procedure, shortened: as §1

[9] = tested on: giant foxtail (Setaria faberii); test: Test A postemergence, visual injury rating; conditions: 0 is no effect, 100 is complete control; for Foxtail, Giant plant response rating: 31 g ai/ha, 0 to 100 scale, approximately 10 days; for Foxtail, Giant plant response rating (0 to 100 scale): 125 g ai/ha
Procedure, shortened: as §1

[10] = tested on: ragweed (common ragweed, Ambrosia elatior); test: Test A preemergence, visual injury rating; conditions: for Plant response rating, Ragweed: 31 g ai/ha, 0 to 100 scale, 0 no effect, 100 complete control; for Ragweed plant response rating: 125 g ai/ha, 0 to 100 scale (0 no effect, 100 complete control)
Procedure, shortened: as §1

[11] = tested on: Italian ryegrass (Lolium multiflorum); test: Test A preemergence, visual injury rating; conditions: for Plant response rating, Ryegrass, Italian: 31 g ai/ha, 0 to 100 scale, 0 no effect, 100 complete control; for Ryegrass, Italian plant response rating: 125 g ai/ha, 0 to 100 scale (0 no effect, 100 complete control)
Procedure, shortened: as §1

kochia (Kochia scoparia) [12] = test: Test A preemergence, visual injury rating; conditions: for Plant response rating, Kochia: 31 g ai/ha, 0 to 100 scale, 0 no effect, 100 complete control; for Kochia plant response rating: 125 g ai/ha, 0 to 100 scale (0 no effect, 100 complete control)
Procedure, shortened: as §1

[13] = tested on: barnyardgrass (Echinochloa crus-galli); test: Test A preemergence, visual injury rating; conditions: for Plant response rating, Barnyardgrass: 31 g ai/ha, 0 to 100 scale, 0 no effect, 100 complete control; for Barnyardgrass plant response rating: 125 g ai/ha, 0 to 100 scale (0 no effect, 100 complete control)
Procedure, shortened: as §1

[14] = tested on: pigweed (Amaranthus retroflexus); test: Test A preemergence, visual injury rating; conditions: for Plant response rating, Pigweed: 31 g ai/ha, 0 to 100 scale, 0 no effect, 100 complete control; for Pigweed plant response rating: 125 g ai/ha, 0 to 100 scale (0 no effect, 100 complete control)
Procedure, shortened: as §1

[15] = tested on: giant foxtail (Setaria faberii); test: Test A preemergence, visual injury rating; conditions: for Plant response rating, Foxtail, Giant: 31 g ai/ha, 0 to 100 scale, 0 no effect, 100 complete control; for Foxtail, Giant plant response rating: 125 g ai/ha, 0 to 100 scale (0 no effect, 100 complete control)
Procedure, shortened: as §1

[16] = tested on: barnyardgrass (Echinochloa crus-galli); test: Test B flooded paddy test, plant response rating; conditions: 250 g ai/ha; Flood; scale of 0 to 100 where 0 is no effect and 100 is complete control; 13 to 15 days
Procedure, shortened: (§2)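 Ratings were visual and made relative to untreated controls after 13 to 15 greenhouse days.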

[17] = tested on: ducksalad (Heteranthera limosa); test: Test B flooded paddy test, plant response rating; conditions: 250 g ai/ha; Flood; scale of 0 to 100 where 0 is no effect and 100 is complete control; 13 to 15 days
Procedure, shortened: as §2

rice (Oryza sativa) = test: Test B flooded paddy test, plant response rating; conditions: 250 g ai/ha; Flood; scale of 0 to 100 where 0 is no effect and 100 is complete control; 13 to 15 days
Procedure, shortened: as §2

[18] = tested on: sedge, umbrella (small-flower umbrella sedge, Cyperus difformis); test: Test B flooded paddy test, plant response rating; conditions: 250 g ai/ha; Flood; scale of 0 to 100 where 0 is no effect and 100 is complete control; 13 to 15 days
Procedure, shortened: as §2

Row | SMILES | Wheat plant response rating ([1]; 31 g ai/ha) | Wheat plant response rating ([1]; 125 g ai/ha) | Ragweed plant response rating ([2]; 31 g ai/ha) | Ragweed plant response rating ([2]; 125 g ai/ha) | Ryegrass, Italian plant response rating ([3]; 31 g ai/ha) | Ryegrass, Italian plant response rating ([3]; 125 g ai/ha) | Kochia plant response rating (kochia (Kochia scoparia) [4]; 31 g ai/ha) | Kochia plant response rating (kochia (Kochia scoparia) [4]; 125 g ai/ha) | Blackgrass plant response rating [5] | Blackgrass plant response rating (0 to 100 scale) [5] | Barnyardgrass plant response rating [6] | Barnyardgrass plant response rating (0 to 100 scale) [6] | Corn plant response rating (corn (Zea mays)) | Corn plant response rating (0 to 100 scale) (corn (Zea mays)) | Galium plant response rating [7] | Galium plant response rating (0 to 100 scale) [7] | Pigweed plant response rating ([8]; 31 g ai/ha) | Pigweed plant response rating ([8]; 125 g ai/ha) | Foxtail, Giant plant response rating [9] | Foxtail, Giant plant response rating (0 to 100 scale) [9] | other results
1 | CCCSC(=O)c1c(Br)cccc1Oc1ncc(Cl)cn1 [Compound 70] | 0 | 0 | 0 | 20 | 0 | 20 | 20 | 70 | 0 | 20 | 0 | 30 | 10 | 10 | 30 | 70 | 10 | 20 | 0 | 30 | Plant response rating, Ragweed [10]: 0; Ragweed plant response rating [10]: 0; Plant response rating, Ryegrass, Italian [11]: 0; Ryegrass, Italian plant response rating [11]: 0; Plant response rating, Kochia (kochia (Kochia scoparia) [12]): 0; Kochia plant response rating (kochia (Kochia scoparia) [12]): 0; Plant response rating, Barnyardgrass [13]: 0; Barnyardgrass plant response rating [13]: 20; Plant response rating, Pigweed [14]: 0; Pigweed plant response rating [14]: 0; Plant response rating, Foxtail, Giant [15]: 0; Foxtail, Giant plant response rating [15]: 60; Plant response rating, Barnyardgrass [16]: 0; Plant response rating, Ducksalad [17]: 70; Plant response rating, Rice (rice (Oryza sativa)): 0; Plant response rating, Sedge, Umbrella [18]: 80
2 | O=C(SCCC(F)(F)F)c1c(Br)cccc1Oc1ncc(Cl)cn1 [Compound 71] | 0 | 0 | 0 | 20 | 0 | 20 | 10 | 50 | 10 | 30 | 0 | 40 | 10 | 20 | 30 | 90 | 30 | 70 | 10 | 40 | Plant response rating, Ragweed [10]: 0; Ragweed plant response rating [10]: 0; Plant response rating, Ryegrass, Italian [11]: 0; Ryegrass, Italian plant response rating [11]: 0; Plant response rating, Kochia (kochia (Kochia scoparia) [12]): 0; Kochia plant response rating (kochia (Kochia scoparia) [12]): 0; Plant response rating, Barnyardgrass [13]: 0; Barnyardgrass plant response rating [13]: 10; Plant response rating, Pigweed [14]: 0; Pigweed plant response rating [14]: 40; Plant response rating, Foxtail, Giant [15]: 40; Foxtail, Giant plant response rating [15]: 100; Plant response rating, Barnyardgrass [16]: 0; Plant response rating, Ducksalad [17]: 90; Plant response rating, Rice (rice (Oryza sativa)): 0; Plant response rating, Sedge, Umbrella [18]: 95
